Results from publication PMC11490872, “Drug-resistant menin variants retain high binding affinity and interactions with MLL1” (The Journal of Biological Chemistry, 2024).
Positions count from the first letter of the chain named. Where no end group is shown, it is not given here.

Key:
[1] = target: T1, menin^G331R (Homo sapiens, UniProt O00255, G326R); assay: FP binding of fluorescein-labeled MLL1 peptides to menin^G331R; settings: versus menin^WT, Fig. 1B (FP and ITC)
T1 construct: The gene encoding full-length human menin was cloned into a pET32a expression vector; thioredoxin-His6 (cleaved yes); made in house; host or cells: E. coli BL21(DE3)
T1 sequence (O00255 1-610 G326R): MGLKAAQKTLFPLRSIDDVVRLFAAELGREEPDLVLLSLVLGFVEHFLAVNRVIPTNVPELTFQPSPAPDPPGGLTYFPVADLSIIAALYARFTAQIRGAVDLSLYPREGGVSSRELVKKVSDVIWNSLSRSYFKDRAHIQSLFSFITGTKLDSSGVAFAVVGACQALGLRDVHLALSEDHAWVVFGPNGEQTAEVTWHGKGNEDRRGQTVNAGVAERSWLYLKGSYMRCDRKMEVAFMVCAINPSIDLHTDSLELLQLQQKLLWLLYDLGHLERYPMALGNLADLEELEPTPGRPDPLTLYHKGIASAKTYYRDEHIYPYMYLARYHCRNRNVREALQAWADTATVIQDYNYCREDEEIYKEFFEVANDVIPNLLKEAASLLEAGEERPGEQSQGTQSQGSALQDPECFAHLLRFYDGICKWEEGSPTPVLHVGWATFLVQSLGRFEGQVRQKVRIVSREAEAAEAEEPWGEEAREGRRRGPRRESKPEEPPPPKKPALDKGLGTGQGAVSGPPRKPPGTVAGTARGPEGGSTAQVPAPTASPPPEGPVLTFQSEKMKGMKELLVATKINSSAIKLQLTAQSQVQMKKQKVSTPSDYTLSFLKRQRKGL
Experimental: (§1) FP binding experiments utilized MLL1-derived peptides, FLSN-MLL1^4-43 at 4 nM and FLSN-MLL1^4-15 at 10 nM, titrated against a range of menin concentrations in the FP buffer (50 mM Tris pH 7.5, 50 mM NaCl, 1 mM TCEP) to obtain Kd measurements. Protein-peptide complexes were incubated for 1 h before measuring the change in fluorescence polarization and anisotropy at 525 nm after excitations at 495 nm using the PHERAstar microplate reader (BMG) ([2]).
(§2) FP competition experiments used FLSN-MLL1^4-43 at 4 nM and menin at 4 nM against varying concentrations of unlabeled MLL1 peptides in FP buffer for IC50 determination. Protein-peptide complexes were incubated for 1 h before unlabeled peptide competitors were added to ensure complete binding. Unlabeled peptide competitors were incubated with the protein-peptide complexes for 3 h before measurement using the PHERAstar microplate reader ([25]). Experiments with Revumenib were run with the same steps and conditions but used 5% DMSO in the final solution. Kd and IC50 values were calculated using GraphPad Prism 10 by plotting mP values measured for each protein/MLL1 peptide or Revumenib as a function of protein/MLL1 peptide (or Revumenib) concentration ([25]). All FP binding and competition experiments were run in triplicate.

[2] = target: T2, menin^G331D (Homo sapiens, UniProt O00255, G326D); assay: FP binding of fluorescein-labeled MLL1 peptides to menin^G331D; settings: versus menin^WT, Fig. 1B (FP and ITC)
T2 construct: The gene encoding full-length human menin was cloned into a pET32a expression vector; thioredoxin-His6 (cleaved yes); made in house; host or cells: E. coli BL21(DE3)
T2 sequence (O00255 1-610 G326D): T1 sequence (O00255 1-610 G326R) with R326D
Experimental: as §1, §2

[3] = tested on: patients with MLL1-r and NPM1-mut acute leukemias; settings: cited from earlier work
[4] = tested on: wild-type, M327I, T349M, and G331R menin bound to FLSN-MLL1^4-43; assay: FP competition, stated over wild-type, M327I, T349M and G331R menin; assay type: binding, human; settings: versus MLL1^46
Experimental: as §2

[5] = target: T3, menin^G331D-FLSN-MLL1^4-43 (Homo sapiens, UniProt O00255, G326D); assay: FP competition, displacement of FLSN-MLL1^4-43 from menin^G331D; assay type: binding; settings: even with increased incubation times, Fig. S6
T3 construct: The gene encoding full-length human menin was cloned into a pET32a expression vector; thioredoxin-His6 (cleaved yes); made in house; host or cells: E. coli BL21(DE3); probe peptide from GenScript
T3 sequence (O00255 1-610 G326D): T1 sequence (O00255 1-610 G326R) with R326D
Experimental: To better understand the mechanism of MLL1 binding with menin mutants, we performed FP competition experiments using FLSN-MLL1^4-43 as a fluorescent probe for competitive displacement by MLL1 peptides ([25]). First, we tested competition with MLL1^160 and found very similar IC50 values for wild-type menin and the three mutants M327I, T349M, and G331R, ranging between 4.1 and 8 nM (Fig. 3, A and B). […] We have hypothesized that the lack of competition with MLL1 for the menin^G331D mutant might result from a much slower dissociation rate of the menin^G331D–MLL1 complex, and to evaluate this we performed time-dependent competition experiments with MLL1^160 and MLL1^46. Standard conditions in the FP assay include 3 h incubations of the menin-FLSN-MLL1^4-43 complex with competitors.
as §2

[6] = target: menin; parameters: method as in PMID 20961854, PMID 22936661; settings: cited from earlier work
[7] = target: MLL1 MBM1 6-13 (Homo sapiens) (UniProt Q03164); settings: cited from earlier work
[8] = target: MLL1 MBM2 24-40 (Homo sapiens) (UniProt Q03164); settings: cited from earlier work
[9] = Phase 1/2, AML patients with KMT2A (MLL1) rearrangements and NPM1 mutations

MLL1 MBM1 6-13 (Homo sapiens), sequence (Q03164 whole entry, looked up, tested part not stated): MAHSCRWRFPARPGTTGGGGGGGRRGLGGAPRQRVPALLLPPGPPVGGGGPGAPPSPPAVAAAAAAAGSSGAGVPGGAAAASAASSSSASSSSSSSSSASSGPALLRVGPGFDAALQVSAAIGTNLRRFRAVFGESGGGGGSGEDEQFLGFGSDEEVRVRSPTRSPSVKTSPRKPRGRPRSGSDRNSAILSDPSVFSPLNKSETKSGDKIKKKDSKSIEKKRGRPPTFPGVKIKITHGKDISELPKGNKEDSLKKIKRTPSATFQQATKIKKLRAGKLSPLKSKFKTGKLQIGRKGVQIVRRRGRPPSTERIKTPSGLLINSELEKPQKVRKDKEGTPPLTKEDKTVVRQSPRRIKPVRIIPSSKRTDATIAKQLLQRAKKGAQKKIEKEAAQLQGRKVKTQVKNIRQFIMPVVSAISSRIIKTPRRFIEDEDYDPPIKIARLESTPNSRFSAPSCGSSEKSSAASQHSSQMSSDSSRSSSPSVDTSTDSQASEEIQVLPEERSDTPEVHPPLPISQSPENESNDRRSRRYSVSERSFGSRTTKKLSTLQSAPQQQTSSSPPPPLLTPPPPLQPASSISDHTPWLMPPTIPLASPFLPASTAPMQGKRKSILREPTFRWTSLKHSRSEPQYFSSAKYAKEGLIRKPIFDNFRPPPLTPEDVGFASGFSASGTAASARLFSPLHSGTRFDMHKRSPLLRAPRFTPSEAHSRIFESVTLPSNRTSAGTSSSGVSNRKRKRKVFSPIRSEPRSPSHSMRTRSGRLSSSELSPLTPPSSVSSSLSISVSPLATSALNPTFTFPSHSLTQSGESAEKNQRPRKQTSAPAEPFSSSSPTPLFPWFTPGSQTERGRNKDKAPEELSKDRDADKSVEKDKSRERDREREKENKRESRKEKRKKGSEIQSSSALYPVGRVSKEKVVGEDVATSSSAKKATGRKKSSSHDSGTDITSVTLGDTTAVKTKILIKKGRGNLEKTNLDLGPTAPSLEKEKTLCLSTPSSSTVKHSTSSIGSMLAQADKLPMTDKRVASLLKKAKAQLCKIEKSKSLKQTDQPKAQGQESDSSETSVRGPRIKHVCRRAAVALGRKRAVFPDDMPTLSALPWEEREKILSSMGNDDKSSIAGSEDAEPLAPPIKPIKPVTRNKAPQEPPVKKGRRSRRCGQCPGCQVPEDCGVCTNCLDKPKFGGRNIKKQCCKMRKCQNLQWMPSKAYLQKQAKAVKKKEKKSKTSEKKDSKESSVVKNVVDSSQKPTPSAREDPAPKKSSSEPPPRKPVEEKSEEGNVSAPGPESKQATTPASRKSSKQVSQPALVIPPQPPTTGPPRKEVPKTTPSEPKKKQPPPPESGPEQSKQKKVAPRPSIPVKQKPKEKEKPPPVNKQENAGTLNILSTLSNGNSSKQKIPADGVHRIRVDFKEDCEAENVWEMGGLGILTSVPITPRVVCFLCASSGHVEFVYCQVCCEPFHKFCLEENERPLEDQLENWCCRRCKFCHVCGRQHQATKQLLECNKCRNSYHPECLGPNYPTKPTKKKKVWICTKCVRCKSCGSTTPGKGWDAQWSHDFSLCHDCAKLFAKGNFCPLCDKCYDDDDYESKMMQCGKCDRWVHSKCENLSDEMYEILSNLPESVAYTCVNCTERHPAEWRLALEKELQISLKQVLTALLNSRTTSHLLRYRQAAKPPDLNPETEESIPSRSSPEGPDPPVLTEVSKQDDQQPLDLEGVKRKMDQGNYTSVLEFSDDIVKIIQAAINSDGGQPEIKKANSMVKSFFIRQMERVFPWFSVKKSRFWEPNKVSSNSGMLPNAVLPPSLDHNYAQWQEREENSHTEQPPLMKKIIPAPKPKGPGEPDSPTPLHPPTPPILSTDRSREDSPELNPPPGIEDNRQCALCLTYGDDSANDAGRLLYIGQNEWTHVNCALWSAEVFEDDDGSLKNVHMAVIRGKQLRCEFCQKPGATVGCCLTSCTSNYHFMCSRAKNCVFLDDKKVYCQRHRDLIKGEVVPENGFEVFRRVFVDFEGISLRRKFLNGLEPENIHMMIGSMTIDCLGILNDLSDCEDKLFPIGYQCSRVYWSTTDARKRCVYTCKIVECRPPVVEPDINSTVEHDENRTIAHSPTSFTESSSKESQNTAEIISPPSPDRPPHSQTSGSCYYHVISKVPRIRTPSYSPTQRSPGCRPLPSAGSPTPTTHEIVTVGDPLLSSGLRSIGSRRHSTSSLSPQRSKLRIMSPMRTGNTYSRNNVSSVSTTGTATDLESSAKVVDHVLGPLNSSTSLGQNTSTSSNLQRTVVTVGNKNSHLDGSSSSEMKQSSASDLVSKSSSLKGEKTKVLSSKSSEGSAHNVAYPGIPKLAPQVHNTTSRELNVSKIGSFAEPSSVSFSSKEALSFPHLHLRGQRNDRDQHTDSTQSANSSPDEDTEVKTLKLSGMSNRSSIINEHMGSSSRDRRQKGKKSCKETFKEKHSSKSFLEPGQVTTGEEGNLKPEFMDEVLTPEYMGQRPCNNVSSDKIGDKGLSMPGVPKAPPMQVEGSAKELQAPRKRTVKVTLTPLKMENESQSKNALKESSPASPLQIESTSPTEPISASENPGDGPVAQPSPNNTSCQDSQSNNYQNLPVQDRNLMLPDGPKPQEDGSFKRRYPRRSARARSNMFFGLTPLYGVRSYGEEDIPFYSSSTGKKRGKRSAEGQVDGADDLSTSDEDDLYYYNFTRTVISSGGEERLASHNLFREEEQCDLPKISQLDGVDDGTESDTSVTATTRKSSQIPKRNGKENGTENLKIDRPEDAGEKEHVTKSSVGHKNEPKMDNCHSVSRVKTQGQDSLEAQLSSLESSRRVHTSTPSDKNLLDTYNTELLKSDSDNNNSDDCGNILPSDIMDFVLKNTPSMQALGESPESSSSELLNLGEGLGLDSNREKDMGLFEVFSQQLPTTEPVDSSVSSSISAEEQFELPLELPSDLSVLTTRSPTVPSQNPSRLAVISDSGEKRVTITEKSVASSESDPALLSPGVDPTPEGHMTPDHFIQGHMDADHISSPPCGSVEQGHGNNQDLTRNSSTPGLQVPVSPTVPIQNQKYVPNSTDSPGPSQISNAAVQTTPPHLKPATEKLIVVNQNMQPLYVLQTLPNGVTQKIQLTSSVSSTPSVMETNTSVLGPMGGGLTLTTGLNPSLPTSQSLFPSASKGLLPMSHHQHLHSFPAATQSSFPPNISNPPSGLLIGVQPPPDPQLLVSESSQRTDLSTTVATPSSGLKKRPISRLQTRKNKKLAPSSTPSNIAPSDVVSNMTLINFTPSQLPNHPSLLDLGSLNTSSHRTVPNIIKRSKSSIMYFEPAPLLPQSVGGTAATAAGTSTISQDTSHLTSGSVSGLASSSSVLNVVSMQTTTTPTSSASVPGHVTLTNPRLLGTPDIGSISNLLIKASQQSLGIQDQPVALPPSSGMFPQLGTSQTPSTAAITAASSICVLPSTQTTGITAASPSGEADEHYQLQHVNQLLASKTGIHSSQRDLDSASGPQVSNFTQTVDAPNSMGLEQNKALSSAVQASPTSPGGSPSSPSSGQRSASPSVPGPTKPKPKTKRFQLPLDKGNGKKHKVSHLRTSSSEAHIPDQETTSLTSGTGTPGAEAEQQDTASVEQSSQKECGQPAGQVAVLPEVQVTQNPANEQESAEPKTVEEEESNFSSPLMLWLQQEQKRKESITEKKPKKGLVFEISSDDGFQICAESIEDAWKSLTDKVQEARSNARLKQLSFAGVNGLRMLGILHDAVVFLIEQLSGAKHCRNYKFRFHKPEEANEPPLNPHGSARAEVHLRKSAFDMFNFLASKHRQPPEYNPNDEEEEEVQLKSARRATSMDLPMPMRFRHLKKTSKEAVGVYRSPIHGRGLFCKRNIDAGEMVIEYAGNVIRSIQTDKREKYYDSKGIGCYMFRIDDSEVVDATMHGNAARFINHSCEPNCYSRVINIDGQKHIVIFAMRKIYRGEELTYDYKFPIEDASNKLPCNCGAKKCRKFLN

## MBM1: menin binding motif 1, amino acid residues 6 to 13 of MLL1 (RWRFPARP; UniProt Q03164 6-13, looked up, fragment)
[1]
  decrease in binding affinity for G331R: 3 fold
[2]
  decrease in binding affinity for G331D: 10 fold

## CNc1nc(NC2CCN(Cc3ccc4c(cc(C#N)n4C[C@H](C)N4CCN(S(C)(=O)=O)CC4)c3C)CC2)c2cc(CC(F)(F)F)sc2n1 [Ziftomenib]
[3]; [9]
  complete remission: ~35%
  overall response rate: ~45%
[3]; phase 1/2 first-in-human trials, MLL1-r and NPM1-mut acute leukemias
  rate of complete remission: over 30%

## C[C@H](NC(=O)[C@@H](N)CO)C(=O)N[C@@H](CCCNC(=N)N)C(=O)N[C@@H](Cc1c[nH]c2ccccc12)C(=O)N[C@@H](CCCNC(=N)N)C(=O)N[C@@H](Cc1ccccc1)C(=O)N1CCC[C@H]1C(=O)N[C@@H](C)C(=O)N[C@@H](CCCNC(=N)N)C(=O)N1CCC[C@H]1C(=O)NCC(=O)N[C@H](C(N)=O)[C@@H](C)O [MLL1^4-15]
[1]
  decrease in binding affinity for G331R: approximately 3 fold
[2]
  decrease in binding affinity for G331D: ~10 fold
[4]
  weaker competition activity than MLL1^46: 3 orders of magnitude

## SARWRFPARPGTTGGGGGGGRRGLG-NH2 (C-terminus assumed) [MLL1^4-28, reference compound]
[5]
  competition for the menin^G331D variant: no significant competition

## MBM2: menin binding motif 2, residues 24 to 40 of MLL1 (RRGLGGAPRQRVPALLL; UniProt Q03164 24-40, looked up, fragment)
[6]
  Kd: 1000 nM

## Menin (from UniProt O00255)
[7]
  Kd: 56 nM
[8]
  Kd: 1000 nM
